Patent US12357598B2, “Treatment of neurodevelopmental disorders” (THE REGENTS OF THE UNIVERSITY OF CALIFORNIA, priority 2018, dated 2025)

Assays:
Format in all cases: in vivo, mouse
pregnant ddY mice = experiment: General data (mortality, body weight, behavioral abnormality) of mothers and offspring after maternal glyphosate exposure; settings: for Behavioral abnormality: juvenile offspring
Procedure: Treatment of glyphosate in drinking water into pregnant mice. Previous studies used drinking water containing 0.38% glyphosate (1% Roundup®) during pregnancy and lactation, equivalent to 50 mg/kg/day of glyphosate (1,2). This does correspond with 1/20 of the glyphosate no-observed-adverse-effect level, as described previously (3). Therefore, water or glyphosate [or 0.1, 0.25, 0.50, 0.75, 1.0% Roundup®, Nissan Chemical Corporation, Tokyo, Japan] were given to the pregnant mice from E5 to P21 (weaning). The male offspring were separated from their mothers at weaning (P21), and mice were caged each three-five in the groups in clear polycarbonate cage (22.5×33.8×14.0 cm). Mice were housed under controlled temperatures and 12 hour light/dark cycles (lights on between 07:00-19:00 h), with ad libitum food and water.
Treatment of TPPU. TPPU was dissolved in polyethylene glycol 400 (PEG 400: Tokyo Chemical Industry Co., Ltd, Tokyo, Japan). TPPU (3 mg/kg/day) or vehicle (5 ml/kg, PEG 400) was administered orally in the pregnant mice from E5 to P21. Behavioral tests of offspring were performed during juvenile stage (P28-P35) after maternal glyphosate exposure (FIG. 1A).

ddY mice [1] = experiment: Locomotion, offspring after maternal glyphosate exposure; settings: juvenile offspring, maternal 0.095% glyphosate vs water
Procedure: Locomotor Activity: Both horizontal and rearing activity were monitored by an infrared ray passive sensor system (SCANET-SV10, Melquest Ltd., Toyama, Japan), and activity was integrated every minute. Individual mice were placed in activity chambers and allowed 1 hour of free exploration as spontaneous activity.

ddY mice [2] = experiment: NORT, offspring after maternal glyphosate exposure; settings: juvenile offspring, maternal 0.095% glyphosate
Procedure: Novel Object Recognition Test (NORT): Mice were habituated for 10 minutes in the test box for 3 straight days. At 4th day, two objects (differing in shape and color but of similar size) were placed in the box 35.5 cm apart (symmetrically), and each animal was allowed to explore in the box for 5 minutes. The animals were considered to be exploring the object when the head of the animal was both facing and within 2.54 cm of the object or when any part of the body, except for the tail was touching the object. The time that mice spent exploring each object was recorded. After training, mice were immediately returned to their home cages, and the box and objects were cleaned with 75% ethanol, to avoid any possible instinctive odorant cues. Retention tests were carried out at one-day intervals, following the respective training. During the retention test, each mouse was reintroduced into their original test box, and one of the training objects was replaced by a novel object. The mice were then allowed to explore freely for 5 minutes, and the time spent exploring each object was recorded. Throughout the experiments, the objects were counter-balanced, in terms of their physical complexity and emotional neutrality. […]

ddY mice [3] = experiment: Prepulse inhibition (PPI) test, offspring after maternal glyphosate exposure; settings: juvenile offspring, maternal 0.095% glyphosate vs water
Procedure: PPI: The offspring mice were tested for their acoustic startle reactivity (ASR) in a startle chamber (SR-LAB; San Diego Instruments, San Diego, CA, USA) using the standard methods described previously (9,10). The test sessions were begun after an initial 10-min acclimation period in the chamber. The mice were subjected to one of six trials: (1) pulse alone, as a 40 ms broadband burst; a pulse (40 ms broadband burst) preceded by 100 ms with a 20 ms prepulse that was (2) 4 dB, (3) 8 dB, (4) 12 dB, or (5) 16 dB over background (65 dB); and (6) background only (no stimulus). The amount of prepulse inhibition (PPI) was expressed as the percentage decrease in the amplitude of the startle reactivity caused by presentation of the prepulse (% PPI). The PPI test lasted 20 min in total.

ddY mice [4] = experiment: Short-chain fatty acids in fecal samples after maternal glyphosate exposure; settings: offspring after maternal glyphosate exposure
Procedure: Measurement of short-chain fatty acids—acetic acid, propionic acid, butyric acid, and valeric acid—in fecal samples was performed by the TechnoSuruga Laboratory, Co., Ltd. (Shizuoka, Japan).

Ephx2 mRNA = experiment: Quantitative RT-PCR of Ephx2 mRNA in brain regions of juvenile offspring after MIA; settings: juvenile offspring of poly(I:C)-treated mice vs saline-treated mice
Source text: Gene expression analysis by quantitative real-time PCR. At juvenile (P28) stage, mice were sacrificed, and their brains were removed for measurement of gene expression of Ephx2 mRNA. Brain regions such as PFC, striatum, CA1, CA3 and DG of the hippocampus were dissected from brain on ice using a Leica microscope S9E (Leica Microsystems, Tokyo, Japan). A quantitative RT-PCR system (Step One Plus, Thermo Fisher Scientific, Yokohama, Japan) was used to measure mRNAs. The specific mRNA transcripts were quantified by TaqManGene Expression assays (Thermo Fisher Scientific, Yokohama, Japan). Expression levels of Ephx2 (Mm01313813_m1) was measured in brain tissue. Total RNA was extracted by use of an RNeasy Mini Kit (Qiagen, Hilden, Germany). The purity of total RNA was assessed by Biophotometer plus (Eppendorf, Hamburg, Germany). The RNA samples were used in the first strand cDNA synthesis with High Capacity cDNA Reverse Transcription Kit (#4368813 Thermo Fisher Scientific, Yokohama, Japan). All samples were tested in triplicate and average values were used for quantification. The average values were normalized to Vic-labeled Actb mRNA (Cat #4352341E: pre-developed TaqMan Assay Reagents, Thermo Fisher Scientific, Yokohama, Japan).

[5] = 0.038% glyphosate (0.1% Roundup)
[6] = 0.095% glyphosate (0.25% Roundup)
[7] = 0.19% glyphosate (0.50% Roundup)
[8] = 0.285% glyphosate (0.75% Roundup)

## O=C(O)CNCP(=O)(O)O [glyphosate]
Pregnant ddY mice; [5]
  Alive number of offspring on P21: 33
  Maternal mortality: 0%
  Number of offspring born: 33
  Offspring mortality: 0%
Pregnant ddY mice; 0.038% glyphosate (0.1% Roundup), 3 mothers used
  Alive number of mothers on P0: 3
Pregnant ddY mice; [6]
  Alive number of offspring on P21: 24
  Maternal mortality: 0%
  Number of offspring born: 30
  Offspring mortality: 20%
  Behavioral abnormality: observed
Pregnant ddY mice; 0.095% glyphosate (0.25% Roundup), 3 mothers used
  Alive number of mothers on P0: 3
Pregnant ddY mice; 0.095% glyphosate vs water exposure mothers
  body weight of mothers at E17: significantly lower
Pregnant ddY mice; [7]
  Alive number of offspring on P21: 2
  Maternal mortality: 20%
  Number of offspring born: 43
  Offspring mortality: 95.3%
Pregnant ddY mice; 0.19% glyphosate (0.50% Roundup), 5 mothers used
  Alive number of mothers on P0: 4
Pregnant ddY mice; [8]
  Alive number of offspring on P21: 4
  Maternal mortality: 25%
  Number of offspring born: 32
  Offspring mortality: 87.5%
Pregnant ddY mice; 0.285% glyphosate (0.75% Roundup), 4 mothers used
  Alive number of mothers on P0: 3
Pregnant ddY mice; 0.38% glyphosate (1% Roundup)
  Alive number of offspring on P21: 0
  Number of offspring born: 0
Pregnant ddY mice; 0.38% glyphosate (1% Roundup) in drinking water from E5
  Maternal mortality: 100%
Pregnant ddY mice; 0.38% glyphosate (1% Roundup) in drinking water from E5, 4 mothers used
  Alive number of mothers on P0: 0
Pregnant ddY mice; glyphosate 0.038%-0.285%
  body weight of pregnant mice: increased gradually
Pregnant ddY mice; high concentration (0.38%) glyphosate
  body weight of pregnant mice: not increased
Pregnant ddY mice; 0.038% glyphosate (0.1% Roundup), locomotion, three chamber test, forced swimming test
  Behavioral abnormality: did not show any behavioral abnormality
ddY mice [1]
  locomotion: not different
ddY mice [2]
  novel object recognition test (NORT): cognitive deficits
ddY mice [3]
  prepulse inhibition (PPI): not different
ddY mice [4]
  levels of acetic acid in the fecal samples: significantly increased
  propionic acid, butyric acid, and valeric acid in fecal samples: not different

## polyriboinosinic-polyribocytidilic acid [Poly(I:C)]
Ephx2 mRNA
  expression of sEH (or Ephx2) mRNA in the PFC: significantly higher
